experiment: GSK PKIS2: Screen against O. lienalis microfilariae, single point, at 3.1uM to assess reduction in motility. Compounds were also tested for cytotoxicity against Rhesus Monkey LLCMK2 cells.; type: functional, Onchocerca lienalis, LLC-MK2; conditions: CELL_LINE LLCMK2; CELL_SUPPLIER ECACC; CONC 3.1 uM; ORGANISM_SUPPLIER Extracted from peri-umbilical skin obtained from naturally infected cattle in the UK; temperature 37 degree C

Compared with NCCS[As](SCCN)c1ccc(Nc2nc(N)nc(N)n2)cc1, Cc1cccc(Nc2nc(NCCN)ncc2C(N)=O)c1 is lower in “MOTILITY REDUCTION/CYTOTOXICITY” value: 100% for the first, 0% for the second.

Nc1cccc(-c2ccc3c(N)n[nH]c3c2)n1 and Nc1nc(-c2ccc3c(N)n[nH]c3c2)cc(N2CCC[C@@H](C(=O)Nc3ccccc3)C2)n1 are the same in “MOTILITY REDUCTION/CYTOTOXICITY” value: 0% for the first, 0% for the second.

Nc1nc(-c2ccc3c(N)n[nH]c3c2)cc(N2CCCC(NC(=O)c3ccccc3)C2)n1 (centres undefined) and COc1ccc(Nc2nccc(N3CCC(NC(=O)c4cc5ccccc5s4)C3)n2)cc1 (centres undefined) are the same in “MOTILITY REDUCTION/CYTOTOXICITY” value: 0% for the first, 0% for the second.

Compared with CC(C)c1nc(-c2cccc(NS(=O)(=O)c3ccccc3)c2)c(-c2ccnc(Nc3ccc4c(c3)CN(C)CC4)n2)s1, CCc1nc(-c2cccc(N(C)S(=O)(=O)c3ccccc3)c2)c(-c2ccnc(Nc3ccc(N4CCN(C(C)=O)CC4)nc3)n2)s1 is lower in “MOTILITY REDUCTION/CYTOTOXICITY” value: 86.7% for the first, 0% for the second.

First: O=c1[nH]cc(-c2ccc(N3CCOCC3)cc2)c2sc(-c3cn[nH]c3)cc12
Second: CNC(=O)c1ccccc1Nc1nc(Nc2ccc(N3CCOCC3)cc2)ncc1Cl
The “MOTILITY REDUCTION/CYTOTOXICITY” value of the first is lower: 0% for the first, 80% for the second.

Going from O=c1cc(N2CCOCC2)nc2n(Cc3ccc(F)c(Cl)c3)ccn12 to O=c1[nH]ccc2nc(N[C@@H]3CCNC3)nc(Nc3cc(Cl)cc(Cl)c3)c12, the “MOTILITY REDUCTION/CYTOTOXICITY” value rises from 0% to 100%.

Going from c1ccc(Cn2ncc3cc(Nc4ncnc5ccccc45)ccc32)cc1 to c1ccc(-c2ccc3c(Nc4ccc5[nH]ncc5c4)ccnc3c2)nc1, the “MOTILITY REDUCTION/CYTOTOXICITY” value rises from 0% to 60%.

Compared with CS(=O)(=O)CCNCc1nc(-c2ccc3ncnc(Nc4ccc(OCc5cccc(F)c5)c(Cl)c4)c3c2)cs1, O=S(=O)(c1cccc(F)c1)c1ccc(Nc2ncnc3cc(Br)sc23)cc1Cl is higher in “MOTILITY REDUCTION/CYTOTOXICITY” value: 0% for the first, 73.4% for the second.

NCC(NC(=O)c1cc(-c2cn[nH]c2)c(-c2ccnc3[nH]ccc23)s1)c1ccccc1 (centres undefined) and COC(=O)C(NC(=O)NC1CCN(c2ccnc(Nc3ccc(F)cc3)n2)C1)c1ccccc1 (centres undefined) are the same in “MOTILITY REDUCTION/CYTOTOXICITY” value: 0% for the first, 0% for the second.

First: COc1cc2ncn(-c3cc(OCc4ccncc4)c(C(N)=O)s3)c2cc1OC
Second: COc1cccc(NC(=O)NC2CCN(c3ccnc(Nc4cc(OC)c(OC)c(OC)c4)n3)C2)c1 (centres undefined)
The “MOTILITY REDUCTION/CYTOTOXICITY” value of the first is lower: 0% for the first, 86.7% for the second.

Going from CCCCc1nn2ncccc2c1-c1ccnc(NC2CC2)n1 to CCS(=O)(=O)c1ccc(OC)c(Nc2nccc(-c3c(-c4cccc(NC(=O)c5c(F)cccc5F)c4)nn4ncccc34)n2)c1, the “MOTILITY REDUCTION/CYTOTOXICITY” value rises from 0% to 33.4%.

CC(C)Oc1ccc2c(-c3ccnc(Nc4ccc(N5CCN(C)CC5)cc4)n3)cnn2n1 and Cn1cncc1C(=O)NC1CCN(c2ccnc(Nc3ccc(F)cc3)n2)C1 (centres undefined) are the same in “MOTILITY REDUCTION/CYTOTOXICITY” value: 0% for the first, 0% for the second.

O=S(=O)(c1ccc(-c2ccnc3[nH]ccc23)cc1)N1CCCC1 and CC(=O)c1cccc(NC(=O)NC2CCN(c3ccnc(Nc4ccc(F)cc4)n3)C2)c1 (centres undefined) are the same in “MOTILITY REDUCTION/CYTOTOXICITY” value: 0% for the first, 0% for the second.

First: c1ccc(Oc2ccc(Nc3ccnc4cc(-c5ccc(CN6CCNCC6)o5)ccc34)cc2)nc1
Second: CC(=O)Nc1ccc(COc2ccc(Nc3ccnc4cc(-c5ccccn5)ccc34)cc2)cc1
The “MOTILITY REDUCTION/CYTOTOXICITY” value of the first is lower: 0% for the first, 100% for the second.

Compared with COc1cccc(NC(=O)NC2CCN(c3ccnc(Nc4ccc(F)cc4)n3)C2)c1 (centres undefined), COc1cc(Nc2nccc(N3CCC(NC(=O)Nc4ccc5c(c4)OCO5)C3)n2)cc(OC)c1OC (centres undefined) is lower in “MOTILITY REDUCTION/CYTOTOXICITY” value: 13.4% for the first, 0% for the second.

First: N#Cc1cnc2cc(-c3cnc(CNCCN4CCOCC4)s3)ccc2c1Nc1ccc(Oc2ccccc2)cc1
Second: Cc1cccc(-c2cc(Nc3ccncc3)c3ccccc3n2)n1
The “MOTILITY REDUCTION/CYTOTOXICITY” value of the first is higher: 16.7% for the first, 0% for the second.

First: O=C(NCCNc1ccnc(Nc2ccc(F)cc2)n1)Nc1ccc2c(c1)OCO2
Second: NS(=O)(=O)c1cccc(N/C=C2\C(=O)Nc3ccc(S(=O)(=O)Cc4c(Cl)cccc4Cl)cc32)c1
The “MOTILITY REDUCTION/CYTOTOXICITY” value of the first is lower: 0% for the first, 33.4% for the second.
